Laboratory results as given in PMC7764606 (Cancers, 2020).

Legend:
HCT116-EV cells = experiment: MTT cell viability, HCT116-EV cells (incl. Chou-Talalay analysis); assay type: cell-based, human
Protocol: HCT116 cells were seeded (1.25 × 10^5 cells/well) in 24-well plates and cultured for 24 h. For the transient expression of the recombinant human AKR1C3, the cells were transfected with a pCI_AKR1C3 or empty pCI plasmid as control (previously described in a study by Hofman et al.) according to the manufacturer’s instructions (jetPRIME® Transfection Reagent; Polyplus Transfection®, Illkirch, France). For each 24-well plate, a mixture of 0.75 µL of the jetPRIME® Transfection Reagent and 0.25 µg of plasmid was incubated for 10 min at room temperature. Then, polyplexes were added to the HCT116 cells with 0.5 mL of fresh DMEM supplemented with 10% FBS and incubated for 24 h (37 °C, 5% CO2). The expression of recombinant AKR1C3 was verified by western blotting as per methods described previously.
Twenty-four hours prior to the experiment, transfected HCT116 cells (8 × 10^3 cells/well) or A549 cells (5 × 10^3 cells/well) were seeded in 96-well plates. The cell culture medium was replaced with fresh medium containing increasing amounts of Dau (final concentrations: 0.01, 0.05, 0.1, 0.25, 0.5, 0.75, 1, and 10 µM) with or without BTK inhibitors (final concentrations: 1, 5, and 10 µM). After 72 h of incubation under standard conditions (37 °C, 5% CO2), cell viability was assessed by MTT (Sigma-Aldrich, Prague, Czech Republic) assay. For this, 50 µL of the MTT solution (3 mg/mL) was added to each well and incubated for 30 min. The supernatant was collected, and the cell monolayers were dissolved in 100 µL of DMSO. The absorbance was measured at 570 and 690 nm by a microplate reader Infinite M200 (Tecan, Salzburg, Austria), and the background values at 690 nm were subtracted from the absorbance obtained at 570 nm. The half-maximal inhibitory concentrations (IC50) were calculated using GraphPad Prism 8.1.2. The drug combination pharmacodynamics were determined by the Chou-Talalay method using the CompuSyn ver. 3.0.1 software (ComboSyn Inc., Paramus, NJ, USA).

[1] = test system: AKR1C3 expression in A549 cells; experiment: AKR1C3 protein levels in A549 cells by western blotting; assay type: cell-based, human; settings: 1, 5 and 10 µM, 72 h, western blot relative to β-actin
Protocol: A549 cells were incubated with DMSO or BTK inhibitors (1, 5, and 10 µM) for 72 h, and then total protein was extracted for analysis of AKR1C3 expression by western blotting (WB) as per methods described previously. A representative WB is shown for IBR (A) and ACA (B) incubations, and bars represent AKR1C3 protein levels as determined by densitometry relative to β-actin (n = 3, mean ± SD). Uncropped images from WB are available in Figure S1 in the Supplementary Materials. On the other hand, HCT116-EV and HCT116-C3 cells were treated with increasing concentrations of IBR (C) and ACA (D) for 72 h, and their viability was assessed by MTT assay. Graphs represent a comparison of the dose-response curves for percentages of cell viability in each cell line (n = 6, mean ± SD).

[2] = BTK-inhibitor 5 µM + Dau 0.25 µM
[3] = BTK-inhibitor 5 µM + Dau 0.50 µM
[4] = BTK-inhibitor 5 µM + Dau 0.75 µM
[5] = BTK-inhibitor 5 µM + Dau 1.00 µM
[6] = BTK-inhibitor 10 µM + Dau 0.25 µM
[7] = BTK-inhibitor 10 µM + Dau 0.50 µM
[8] = BTK-inhibitor 10 µM + Dau 0.75 µM
[9] = BTK-inhibitor 10 µM + Dau 1.00 µM

CC#CC(=O)N1CCC[C@H]1c1nc(-c2ccc(C(=O)Nc3ccccn3)cc2)c2c(N)nccn12 [Acalabrutinib, acalabrutinib]
Combination index (CI) (HCT116-EV cells; [2]): 0.64 ± 0.07
Dose reduction index for Dau (HCT116-EV cells; [2]): 1.59 ± 0.16
Fraction affected (Fa %) (HCT116-EV cells; [2]): 57.98 ± 10.7%
Combination index (CI) (HCT116-EV cells; [3]): 0.80 ± 0.02
Dose reduction index for Dau (HCT116-EV cells; [3]): 1.26 ± 0.03
Fraction affected (Fa %) (HCT116-EV cells; [3]): 76.14 ± 4.55%
Combination index (CI) (HCT116-EV cells; [4]): 0.73 ± 0.05
Dose reduction index for Dau (HCT116-EV cells; [4]): 1.38 ± 0.09
Fraction affected (Fa %) (HCT116-EV cells; [4]): 88.86 ± 2.18%
Combination index (CI) (HCT116-EV cells; [5]): 0.93 ± 0.17
Dose reduction index for Dau (HCT116-EV cells; [5]): 1.10 ± 0.20
Fraction affected (Fa %) (HCT116-EV cells; [5]): 89.81 ± 0.07%
Combination index (CI) (HCT116-EV cells; [6]): 0.64 ± 0.01
Dose reduction index for Dau (HCT116-EV cells; [6]): 1.60 ± 0.00
Fraction affected (Fa %) (HCT116-EV cells; [6]): 58.22 ± 6.27%
Combination index (CI) (HCT116-EV cells; [7]): 0.68 ± 0.05
Dose reduction index for Dau (HCT116-EV cells; [7]): 1.48 ± 0.11
Fraction affected (Fa %) (HCT116-EV cells; [7]): 81.17 ± 2.72%
Combination index (CI) (HCT116-EV cells; [8]): 0.62 ± 0.12
Dose reduction index for Dau (HCT116-EV cells; [8]): 1.65 ± 0.31
Fraction affected (Fa %) (HCT116-EV cells; [8]): 91.66 ± 0.08%
Combination index (CI) (HCT116-EV cells; [9]): 0.88 ± 0.12
Dose reduction index for Dau (HCT116-EV cells; [9]): 1.15 ± 0.15
Fraction affected (Fa %) (HCT116-EV cells; [9]): 90.59 ± 0.95%
IC50 (HCT116-EV cells; Homo sapiens, 72 h MTT, read-out: IC50 of BTK inhibitor alone (cell viability)): 33 µM
effect on expression (protein levels) of AKR1C3 [1]: negligible or absence of effects
